Reference: patent US20220235064A1 (WELLMARKER BIO CO., LTD., priority 2019, published 2022)

Tests used:
[1] = tested on: cancer cell line HT29, in which mutated RON (Δ160) is expressed; experiment: Cell-killing efficacy in RON-mutated cancer cell line HT29 (trypan blue); type: cell-based; settings: for cell-killing effect (in words): HT29, as compared with the positive control; for cytotoxicity at 1 µM / cytotoxicity at 5 µM: Homo sapiens, HT-29, 48 hours, trypan blue, n=2, read-out: Cell death (%) Cancer cell line HT29
Procedure: (§1) Experimental Example 4: Measurement of Cell-Killing Efficacy of Example Compounds in RON-Mutated Cancer Cell Lines
(§2) Each of two colorectal cancer cell lines, that is, the cancer cell line HT29 (30038, KCLB, RPMI+10% FBS), in which mutated RON (Δ160) is expressed, and the cancer cell line SW620 (CCL-227, ATCC, RPMI+10% FBS), in which mutated RON (Δ155) is expressed, was dispensed into each 60 mm^2 dish at 1×10^5 cells. After 24 hours, the dish was treated with each of the example compounds at a concentration of 1 μM or 5 μM while performing medium exchange, and then reaction was allowed to proceed for 48 hours. After 48 hours, centrifugation was performed for 4 minutes at 1,500 rpm to collect cells and cell fluid. Thereafter, living cells and dead cells were quantified (n=2) using a trypan blue solution (15250-061, Gibco), and statistical analysis was performed using Excel-T-test. Here, as a negative control, only a solvent (0.10% DMSO) was used; and as a positive control, N-(4-(2-amino-3-chloropyridin-4-yloxy)-3-fluorophenyl)-4-ethoxy-1-(4-fluorophenyl)-2-oxo-1,2-dihydropyridine-3-carboxamide, which is the compound of Example 1 in WO 2008/058229 A1, was used.

[2] = tested on: cancer cell line KM12C, in which RON is activated; experiment: Cell growth inhibitory ability in RON-activated cancer cell line (MTS); type: cell-based; settings: Homo sapiens, 48 hours, absorbance 490 nm
Procedure, shortened: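 KM12C cells (RON-activated, MEM with FBS) exposed to compound […] for 48 h. MTS added 24 h after treatment ended, incubated 4 h at 37° C, absorbance read at 490 nm. IC50 derived from absorbance.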

[3] = tested on: cancer cell line SW620, in which mutated RON (Δ155) is expressed; experiment: Cell-killing efficacy in RON-mutated cancer cell line SW620 (trypan blue); type: cell-based; settings: for cytotoxicity at 1 µM / cytotoxicity at 5 µM: Homo sapiens, SW-620, 48 hours, trypan blue, n=2, read-out: Cell death (%) Cancer cell line SW620; for cell-killing effect (in words): SW620, as compared with the positive control
Procedure: as §1, §2

RON tyrosine kinase = biological target: T1, RON tyrosine kinase (Homo sapiens, UniProt Q04912); experiment: Enzyme inhibitory activity against RON tyrosine kinase (TR-FRET); type: biochemical; settings: RON (Carna Bioscience)
T1 construct: purchased Carna Bioscience
Procedure, shortened: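 Recombinant RON was preincubated with compound for 15 min at RT in 50 mM HEPES pH 7.5, 10 mM MgCl2, 1 mM EGTA, 2 mM DTT, 0.01% Tween-20. Enzyme (0.4 nM), ATP (60 μM) and tyrosine peptide (400 nM) were prepared at 2×, 4× and 4× final. After 60 min at RT, EDTA/Eu-anti-phosphotyrosine stop; IC50 from 665 nm TR-FRET emission.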

[4] = tested on: cancer cell line KM12C, in which RON is activated; experiment: Cell-killing efficacy in RON-activated cancer cell line (trypan blue); type: cell-based; settings: for cytotoxicity at 1 µM / cytotoxicity at 5 µM: Homo sapiens, 48 hours, trypan blue, n=2, read-out: Cell death (%) Cancer cell line KM12C; for cell-killing effect (in words): as compared with the positive control
Procedure, shortened: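 KM12C cells seeded 1×10^5 per 60 mm^2 dish in MEM + 10% FBS, then exposed 24 h later to compound at 1 μM or 5 μM for 48 h.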

T1 sequence (Q04912 25-1400): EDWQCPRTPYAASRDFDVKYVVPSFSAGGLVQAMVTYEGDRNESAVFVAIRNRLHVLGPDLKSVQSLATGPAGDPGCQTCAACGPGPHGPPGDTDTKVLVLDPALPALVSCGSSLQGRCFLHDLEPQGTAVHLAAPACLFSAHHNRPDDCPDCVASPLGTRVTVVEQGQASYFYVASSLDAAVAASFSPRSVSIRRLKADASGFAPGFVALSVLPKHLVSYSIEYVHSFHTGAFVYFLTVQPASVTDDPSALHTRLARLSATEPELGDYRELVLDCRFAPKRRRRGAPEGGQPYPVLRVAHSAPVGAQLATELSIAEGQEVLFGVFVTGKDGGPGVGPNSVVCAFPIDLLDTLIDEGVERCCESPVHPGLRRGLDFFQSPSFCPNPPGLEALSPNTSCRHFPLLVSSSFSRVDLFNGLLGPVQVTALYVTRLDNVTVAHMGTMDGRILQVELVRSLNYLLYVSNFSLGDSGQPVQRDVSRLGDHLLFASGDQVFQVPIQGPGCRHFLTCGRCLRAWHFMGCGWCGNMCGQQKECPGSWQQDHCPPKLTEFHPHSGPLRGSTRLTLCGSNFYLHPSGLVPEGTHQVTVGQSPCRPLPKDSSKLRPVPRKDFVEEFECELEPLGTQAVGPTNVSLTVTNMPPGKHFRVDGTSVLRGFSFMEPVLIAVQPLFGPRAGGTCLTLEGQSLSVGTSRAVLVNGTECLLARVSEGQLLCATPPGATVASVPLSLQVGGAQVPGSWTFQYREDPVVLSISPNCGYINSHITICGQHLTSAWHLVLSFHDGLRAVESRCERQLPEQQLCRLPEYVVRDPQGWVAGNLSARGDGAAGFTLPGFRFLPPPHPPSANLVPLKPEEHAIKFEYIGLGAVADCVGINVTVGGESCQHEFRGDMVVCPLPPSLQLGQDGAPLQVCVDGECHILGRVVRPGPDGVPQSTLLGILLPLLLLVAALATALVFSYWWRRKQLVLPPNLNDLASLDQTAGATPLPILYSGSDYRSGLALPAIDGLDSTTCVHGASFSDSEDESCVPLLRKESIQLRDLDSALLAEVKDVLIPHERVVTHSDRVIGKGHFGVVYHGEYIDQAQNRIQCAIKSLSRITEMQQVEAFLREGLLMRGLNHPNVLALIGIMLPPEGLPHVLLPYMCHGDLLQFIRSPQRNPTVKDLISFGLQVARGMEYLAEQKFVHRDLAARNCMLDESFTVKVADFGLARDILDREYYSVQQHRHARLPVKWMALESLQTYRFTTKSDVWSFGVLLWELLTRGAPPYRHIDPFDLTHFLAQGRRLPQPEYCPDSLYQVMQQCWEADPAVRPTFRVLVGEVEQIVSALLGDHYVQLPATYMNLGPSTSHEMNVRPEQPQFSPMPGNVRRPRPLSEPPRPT

IC50 [2] [nM]	IC50 (RON tyrosine kinase) [nM]	Compound	cell-killing effect (in words) [1]	cytotoxicity at 1 µM [1] [%]	cytotoxicity at 5 µM [1] [%]	cytotoxicity at 1 µM [3] [%]	cytotoxicity at 5 µM [3] [%]	cell-killing effect (in words) [3]	cytotoxicity at 1 µM [4] [%]	cytotoxicity at 5 µM [4] [%]	cell-killing effect (in words) [4]
1	4.67	COc1cc2nccc(Oc3ccc(NC(=O)c4c5c(cn(-c6ccc(F)cc6)c4=O)CCO5)cc3F)c2cc1NCCN1CCOCC1 [Example 185, N-(3-Fluoro-4-((7-methoxy-6-((2-morpholinoethyl)amino)quinolin-4-yl)oxy)phenyl)-5-(4-fluorophenyl)-6-oxo-2,3,5,6-tetrahydrofuro[3,2-c]pyridine-7-carboxamide]	high cell-killing effect	5.1	32.4	28.1	70.2	high cell-killing effect	32.5	63.8	high cell-killing effect
6	3.86	COc1cc2c(Oc3ccc(NC(=O)c4c5c(cn(-c6ccc(F)cc6)c4=O)CCO5)cc3F)ccnc2cc1NCCN1CCOCC1 [Example 187, N-(3-Fluoro-4-((6-methoxy-7-((2-morpholinoethyl)amino)quinolin-4-yl)oxy)phenyl)-5-(4-fluorophenyl)-6-oxo-2,3,5,6-tetrahydrofuro[3,2-c]pyridine-7-carboxamide]	high cell-killing effect	8.4	34.3	23.9	50.5	high cell-killing effect	20.4	60	high cell-killing effect
8	3.23	COc1cc2c(Oc3ccc(NC(=O)c4c5c(cn(-c6ccc(F)cc6)c4=O)CCO5)cc3F)ccnc2cc1NCCCN1CCOCC1 [Example 188, N-(3-Fluoro-4-((6-methoxy-7-((3-morpholinopropyl)amino)quinolin-4-yl)oxy)phenyl)-5-(4-fluorophenyl)-6-oxo-2,3,5,6-tetrahydrofuro[3,2-c]pyridine-7-carboxamide]	high cell-killing effect	28.7	94.4	26.9	31.6	high cell-killing effect	25.4	57.3	high cell-killing effect

The remaining lines, values behind:

Compound	IC50 [2] [nM]	IC50 (RON tyrosine kinase) [nM]	cell-killing effect (in words) [1]	cytotoxicity at 1 µM [1] [%]	cytotoxicity at 5 µM [1] [%]	cytotoxicity at 1 µM [3] [%]	cytotoxicity at 5 µM [3] [%]	cell-killing effect (in words) [3]	cytotoxicity at 1 µM [4] [%]	cytotoxicity at 5 µM [4] [%]	cell-killing effect (in words) [4]
COc1cc2c(Oc3ccc(NC(=O)c4c5c(cn(-c6ccc(F)cc6)c4=O)CCO5)cc3F)ccnc2cc1OCCCN1CCOCC1 [Example 76, N-(3-Fluoro-4-((6-methoxy-7-(3-morpholinopropoxy)quinolin-4-yl)oxy)phenyl)-5-(4-fluorophenyl)-6-oxo-2,3,5,6-tetrahydrofuro[3,2-c]pyridine-7-carboxamide]	4	1.79	high cell-killing effect	21.9	28.6	46.4	67.8	high cell-killing effect	35.7	38.3	high cell-killing effect
O=C(Nc1ccc(Oc2ccnc3cc(OCCCN4CCOCC4)ccc23)c(F)c1)c1c2c(cn(-c3ccc(F)cc3)c1=O)CCO2 [Example 158, N-(3-Fluoro-4-((7-(3-morpholinopropoxy)quinolin-4-yl)oxy)phenyl)-5-(4-fluorophenyl)-6-oxo-2,3,5,6-tetrahydrofuro[3,2-c]pyridine-7-carboxamide]	5	1.99	–	15.2	30.9	11.6	92.3	–	24.1	37.1	–
COc1cc2c(Oc3ccc(NC(=O)c4c5c(cn(-c6ccc(F)cc6)c4=O)CCO5)cc3F)ccnc2cc1N [Example 181, N-(4-((7-Amino-6-methoxyquinolin-4-yl)oxy)-3-fluorophenyl)-5-(4-fluorophenyl)-6-oxo-2,3,5,6-tetrahydrofuro[3,2-c]pyridine-7-carboxamide]	2	5.92	–	10.2	99.1	11.3	35	–	14.6	36.8	–
COc1cc2c(Oc3ccc(NC(=O)c4c5c(cn(-c6ccc(F)cc6)c4=O)CCO5)cc3F)ccnc2cc1NC(C)=O [Example 184, N-(4-((7-Acetamido-6-methoxyquinolin-4-yl)oxy)-3-fluorophenyl)-5-(4-fluorophenyl)-6-oxo-2,3,5,6-tetrahydrofuro[3,2-c]pyridine-7-carboxamide]	2	0.92	–	7.9	23.2	5	29.8	–	13.8	54.2	–
